In the supplement of paper PMC4862054:

Key:
Experiment in all cases: normalised viability (% of control), CellTiter-Blue; higher = more viable cells (about 100 = DMSO control)
Details in all cases: incubation time: 72 h
BT-474 = tested on: BT-474
Method: (§1)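 DSRT, CellTiter-Blue viability, 72 h incubation. Signal is normalised to DMSO and benzethonium chloride controls. Value is the normalised response at dose 3.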

CAL-120 = tested on: CAL-120
Method: as §1

CAL-51 = tested on: CAL-51
Method: as §1

CAL-85-1 = tested on: CAL-85-1
Method: as §1

DU-4475 = tested on: DU-4475
Method: as §1

HCC1143 = tested on: HCC1143
Method: as §1

HCC1599 = tested on: HCC1599
Method: as §1

HCC1937 = tested on: HCC1937
Method: as §1

HDQ-P1 = tested on: HDQ-P1
Method: as §1

Hs578T = tested on: Hs578T
Method: as §1

MDA-MB-231 = tested on: MDA-MB-231
Method: as §1

MDA-MB-436 = tested on: MDA-MB-436
Method: as §1

MDA-MB-468 = tested on: MDA-MB-468
Method: as §1

SK-BR-3 = tested on: SK-BR-3
Method: as §1

| SMILES | normalised viability (BT-474; 10 nM) [%] | normalised viability (CAL-120; 10 nM) [%] | normalised viability (CAL-51; 1 nM) [%] | normalised viability (CAL-85-1; 1 nM) [%] | normalised viability (DU-4475; 1 nM) [%] | normalised viability (HCC1143; 10 nM) [%] | normalised viability (HCC1599; 10 nM) [%] | normalised viability (HCC1937; 10 nM) [%] | normalised viability (HDQ-P1; 1 nM) [%] | normalised viability (Hs578T; 10 nM) [%] | normalised viability (MDA-MB-231; 10 nM) [%] | normalised viability (MDA-MB-436; 10 nM) [%] | normalised viability (MDA-MB-468; 10 nM) [%] | normalised viability (SK-BR-3; 10 nM) [%] | normalised viability (BT-474; 100 nM) [%] | normalised viability (CAL-120; 100 nM) [%] | normalised viability (CAL-51; 10 nM) [%] | normalised viability (CAL-85-1; 10 nM) [%] | normalised viability (DU-4475; 10 nM) [%] | normalised viability (HCC1143; 100 nM) [%] | normalised viability (HCC1599; 100 nM) [%] | normalised viability (HCC1937; 100 nM) [%] | normalised viability (HDQ-P1; 10 nM) [%] | normalised viability (Hs578T; 100 nM) [%] | normalised viability (MDA-MB-231; 100 nM) [%] | normalised viability (MDA-MB-436; 100 nM) [%] | normalised viability (MDA-MB-468; 100 nM) [%] | normalised viability (SK-BR-3; 100 nM) [%] |
| --- | --- | --- | --- | --- | --- | --- | --- | --- | --- | --- | --- | --- | --- | --- | --- | --- | --- | --- | --- | --- | --- | --- | --- | --- | --- | --- | --- | --- |
| Cc1ccc(C(=O)N(CCCN)[C@@H](c2oc3cc(Cl)ccc3c(=O)c2Cc2ccccc2)C(C)C)cc1 | 30.3 | 31.1 | 103 | 98.7 | 105 | 46.6 | 80.5 | 25.2 | 105 | 19.5 | 27.6 | 55.9 | 29.1 | 18 | – | – | – | – | – | – | – | – | – | – | – | – | – | – |
| NC(=O)Nc1cc(-c2cccc(F)c2)sc1C(=O)N[C@H]1CCCNC1 [AZD 7762] | 124 | 114 | 100 | 99.8 | 113 | 105 | 101 | 105 | 115 | 104 | 114 | 96.1 | 107 | 97.6 | – | – | – | – | – | – | – | – | – | – | – | – | – | – |
| CO[C@H]1/C=C\C=C(/C)C(=O)NC2=CC(=O)C(NCCN(C)C)=C(C[C@@H](C)C[C@H](OC)[C@H](O)[C@@H](C)/C=C(\C)[C@@H]1OC(N)=O)C2=O [Alvespimycin] | 92.1 | 86.3 | 90 | 97.2 | 105 | 86.1 | 77 | 55.9 | 112 | 51.5 | 97.2 | 74.9 | 102 | 51.5 | – | – | – | – | – | – | – | – | – | – | – | – | – | – |
| CCC1(c2ccc(N)cc2)CCC(=O)NC1=O (stereo unspecified) [Aminoglutethimide] | – | – | – | – | – | – | – | – | – | – | – | – | – | – | 112 | 121 | 93.5 | 101 | 104 | 113 | 104 | 91.3 | 93.5 | 80.6 | 93.7 | 90.9 | 102 | 105 |
| NCC(=O)CCC(=O)O [Aminolevulinic acid] | – | – | – | – | – | – | – | – | – | – | – | – | – | – | 114 | 99.7 | 101 | 98.4 | 104 | 88.9 | 87.9 | 91 | 100 | 101 | 110 | 104 | 103 | 99 |
| CCN(CCCOc1ccc2c(Nc3cc(CC(=O)Nc4cccc(F)c4)[nH]n3)ncnc2c1)CCOP(=O)(O)O [Barasertib] | 90.2 | 88.1 | 96 | 95.5 | 102 | 111 | 101 | 101 | 111 | 87.9 | 102 | 113 | 99.4 | 68.3 | – | – | – | – | – | – | – | – | – | – | – | – | – | – |
| Cn1c(CCCC(=O)O)nc2cc(N(CCCl)CCCl)ccc21 [Bendamustine] | – | – | – | – | – | – | – | – | – | – | – | – | – | – | 108 | 88.2 | 106 | 102 | 120 | 105 | 105 | 97.4 | 112 | 83.7 | 93.2 | 83.4 | 96.3 | 67.7 |
| C=C(c1ccc(C(=O)O)cc1)c1cc2c(cc1C)C(C)(C)CCC2(C)C [Bexarotene] | – | – | – | – | – | – | – | – | – | – | – | – | – | – | 102 | 104 | 84.7 | 97 | 110 | 115 | 88 | 93.5 | 86.4 | 70.7 | 80.5 | 77.2 | 108 | 82.6 |
| CC(=O)Nc1ccc(C(=O)Nc2ccccc2N)cc1 [CI-994] | 106 | 114 | 94 | 91.7 | 93.9 | 111 | 108 | 108 | 113 | 97.8 | 103 | 94.2 | 108 | 78.2 | – | – | – | – | – | – | – | – | – | – | – | – | – | – |
| COc1cc2nccc(Oc3ccc(NC(=O)C4(C(=O)Nc5ccc(F)cc5)CC4)cc3)c2cc1OC [Cabozantinib] | 122 | 80.7 | 96.9 | 91.8 | 89.4 | 81.3 | 82.3 | 95.4 | 99.5 | 91.1 | 100 | 108 | 123 | 76.2 | – | – | – | – | – | – | – | – | – | – | – | – | – | – |
| N.N.[Cl][Pt][Cl] [Cisplatin] | – | – | – | – | – | – | – | – | – | – | – | – | – | – | 127 | 86.5 | 108 | 104 | 103 | 103 | 95.4 | 95.1 | 130 | 106 | 96.4 | 89.8 | 99.1 | 90.5 |
| C[C@@H](Oc1cc(-c2cnn(C3CCNCC3)c2)cnc1N)c1c(Cl)ccc(F)c1Cl [Crizotinib] | – | – | – | – | – | – | – | – | – | – | – | – | – | – | 92.7 | 96.8 | 107 | 93.8 | 91.3 | 95.8 | 99.6 | 102 | 85 | 64.8 | 84.7 | 84.8 | 97.7 | 59.1 |
| CN(C)/N=N/c1[nH]cnc1C(N)=O [Dacarbazine] | – | – | – | – | – | – | – | – | – | – | – | – | – | – | 117 | 77.9 | 85.9 | 91.8 | 98.4 | 89.2 | 78.8 | 106 | 111 | 106 | 93.1 | 86.8 | 112 | 86.9 |
| Cc1ccc(-n2nc(C(C)(C)C)cc2NC(=O)Nc2ccc(OCCN3CCOCC3)c3ccccc23)cc1 [Doramapimod] | – | – | – | – | – | – | – | – | – | – | – | – | – | – | 93.8 | 87.3 | 110 | 91.1 | 106 | 100 | 90.9 | 94.7 | 93.8 | 78 | 92.5 | 86 | 98 | 69.7 |
